This note sets out measurements from ChEMBL document CHEMBL1139601, “Novel 2-N,N-dimethylaminomethyl-2,3,3a,12b-tetrahydrodibenzo[b,f]furo[2,3-d]oxepin derivatives displaying combined norepinephrine reuptake inhibition and 5-HT2A/2C receptor antagonism” (Bioorg Med Chem Lett, 2005).

Test [1] addresses T1, 5-hydroxytryptamine receptor 2C (Homo sapiens, UniProt P28335).
T1 sequence (P28335 whole entry): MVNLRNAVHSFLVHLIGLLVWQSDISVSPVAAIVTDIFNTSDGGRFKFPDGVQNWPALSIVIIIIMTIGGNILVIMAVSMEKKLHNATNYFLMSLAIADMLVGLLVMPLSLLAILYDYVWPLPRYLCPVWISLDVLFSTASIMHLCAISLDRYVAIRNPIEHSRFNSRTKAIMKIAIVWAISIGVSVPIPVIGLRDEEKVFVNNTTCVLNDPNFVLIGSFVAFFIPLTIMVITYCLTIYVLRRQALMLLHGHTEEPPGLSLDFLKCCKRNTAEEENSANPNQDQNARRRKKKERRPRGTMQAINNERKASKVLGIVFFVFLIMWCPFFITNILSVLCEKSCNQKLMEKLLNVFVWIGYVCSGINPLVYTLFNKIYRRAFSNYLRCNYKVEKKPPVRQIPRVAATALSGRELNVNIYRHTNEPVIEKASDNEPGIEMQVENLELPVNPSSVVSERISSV
Description: In vitro binding affinity against 5-hydroxytryptamine 2C receptor using [3H]mesulergine as radioligand expressed in CHO cells. The test is classed as cell-based.

For test [2], the target named is 5-hydroxytryptamine receptor 2A (Homo sapiens, UniProt P28223). The experiment in a line: In vitro binding affinity against 5-hydroxytryptamine 2A receptor using [125I]R91150 as radioligand expressed in L929 cells. Format: cell-based.
Sequence of 5-hydroxytryptamine receptor 2A (P28223 whole entry): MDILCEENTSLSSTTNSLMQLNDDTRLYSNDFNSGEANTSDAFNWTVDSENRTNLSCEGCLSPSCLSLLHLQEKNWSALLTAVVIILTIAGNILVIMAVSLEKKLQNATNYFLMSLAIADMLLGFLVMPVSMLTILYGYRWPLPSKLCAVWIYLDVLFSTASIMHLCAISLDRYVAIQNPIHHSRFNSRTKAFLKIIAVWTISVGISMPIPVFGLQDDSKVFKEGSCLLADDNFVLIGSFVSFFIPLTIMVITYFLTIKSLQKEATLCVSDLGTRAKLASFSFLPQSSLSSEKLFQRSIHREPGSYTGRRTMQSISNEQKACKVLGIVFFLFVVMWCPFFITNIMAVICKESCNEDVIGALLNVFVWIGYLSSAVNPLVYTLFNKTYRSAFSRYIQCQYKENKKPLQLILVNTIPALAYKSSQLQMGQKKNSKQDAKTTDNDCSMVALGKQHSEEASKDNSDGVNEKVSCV
For test [3], the system named is Rattus norvegicus. Description: In vivo effective dose for the reversal of tryptamine-induced cyanosis in rat. Format: functional.
Test [4] relates to Rattus norvegicus. Description: In vivo effective dose for the reversal of tryptamine-induced bilateral convulsions in rat. Format: functional.
For a further test, the system named is Mus musculus. The experiment in a line: In vivo effective dose for the reversal of RO-4-1284 induced hypothermia in mice. The test is classed as functional.
Test [5] has as its system Rattus norvegicus. Description: In vivo effective for the antagonism of m-chlorophenyl-piperazine induced anxiety in rat. The test is classed as functional.

Compound `CN(C)C[C@H]1C[C@H]2c3ccccc3Oc3ccc(Br)cc3[C@H]2O1` had an inhibitory constant (Ki) in test [1] of 87 nM.

Take `Brc1ccc2c(c1)[C@H]1O[C@H](Cn3oc4ccc(-c5ccccc5)cc43)C[C@H]1c1ccccc1O2`: the Ki is 183 nM in test [1] and 307 nM in test [2].

Turning to `CN(C)C[C@H]1C[C@H]2c3ccccc3Oc3ccccc3[C@@H]2O1`, the ED50 in the test on Rattus norvegicus [3] was above 2.5 mg/kg; in the test on Rattus norvegicus [4], 3.15 mg/kg; in the test with Mus musculus, 1.25 mg/kg; in the test on Rattus norvegicus [5], above 2.5 mg/kg. The values for the Ki in test [1] and in test [2] were 183 nM and 92 nM, respectively.

In the case of `O=C1CCN1c1ccc2on(C[C@@H]3C[C@H]4c5ccccc5Oc5ccc(Br)cc5[C@H]4O3)c2c1`, the Ki in test [1] came to 356 nM; in test [2] it was 306 nM.

In the case of `CN(C)C[C@@H]1C[C@H]2c3ccccc3Oc3ccc(F)cc3[C@H]2O1`, the ED50 with Rattus norvegicus [3] turned out to be 0.5 mg/kg; in the test with Rattus norvegicus [4], 0.5 mg/kg; with Mus musculus it was 0.02 mg/kg; in the test with Rattus norvegicus [5] it was 0.5 mg/kg. The Ki in test [2] was found to be 104 nM.

For `CN(C)C[C@H]1C[C@@H]2c3ccccc3Oc3ccccc3[C@H]2O1`, the ED50 in the test on Rattus norvegicus [3], in the test on Rattus norvegicus [4] and with Mus musculus was above 2.5 mg/kg in each case. Besides, the Ki in test [1] was determined as 179 nM; in test [2], 16 nM.

As for `CN(C)C[C@H]1C[C@H]2c3ccccc3Oc3ccc(F)cc3[C@H]2O1`, the ED50 in the test with Rattus norvegicus [3] was 5 mg/kg; with Rattus norvegicus [4] it was 1.98 mg/kg; with Mus musculus, 0.13 mg/kg; with Rattus norvegicus [5], above 2.5 mg/kg. The results for the Ki in test [1] and in test [2] were 63 nM and 423 nM, respectively.

`CN(C)C[C@@H]1C[C@H]2c3ccccc3Oc3ccc(Cl)cc3[C@H]2O1`: the ED50 was 0.2 mg/kg in the test with Rattus norvegicus [3], 0.08 mg/kg in the test with Rattus norvegicus [4], 0.5 mg/kg in the test with Mus musculus and above 2.5 mg/kg in the test on Rattus norvegicus [5].

Take `N#Cc1ccc2on(C[C@@H]3C[C@H]4c5ccccc5Oc5ccc(Br)cc5[C@H]4O3)c2c1`: the Ki in test [1] was determined as 183 nM; in test [2], 185 nM.

For the compound `CN(C)C[C@@H]1C[C@H]2c3ccccc3Oc3ccc(Br)cc3[C@H]2O1`, the ED50 in the test with Rattus norvegicus [3] was 0.79 mg/kg; in the test with Rattus norvegicus [4], 0.32 mg/kg; in the test on Mus musculus it was 3.15 mg/kg; in the test with Rattus norvegicus [5] it was above 2.5 mg/kg. In test [1], this compound gave a Ki of 6 nM.

As to `Nc1ccc2on(C[C@@H]3C[C@H]4c5ccccc5Oc5ccc(Br)cc5[C@H]4O3)c2c1`, the Ki is 270 nM in test [1] and 255 nM in test [2].

Regarding `CCOC(=O)c1ccc2on(C[C@@H]3C[C@H]4c5ccccc5Oc5ccc(Br)cc5[C@H]4O3)c2c1`, the figures for the Ki in test [1] and in test [2] were 246 nM and 97 nM, respectively.

For `CN(C)C[C@H]1C[C@H]2c3ccccc3Oc3ccc(Cl)cc3[C@H]2O1`, the ED50 is 0.8 mg/kg in the test with Rattus norvegicus [3], 0.32 mg/kg in the test on Rattus norvegicus [4], 0.05 mg/kg in the test on Mus musculus and above 2.5 mg/kg in the test with Rattus norvegicus [5]. In test [1], this compound returned a Ki of 21 nM.

On to `COc1ccc2c(c1)[C@H]1O[C@@H](CN(C)C)C[C@H]1c1ccccc1O2`, for which the Ki is 235 nM in test [1] and 193 nM in test [2].

As for `Brc1ccc2c(c1)[C@H]1O[C@H](Cn3oc4ccc(N5CCOCC5)cc43)C[C@H]1c1ccccc1O2`, the inhibitory constant (Ki) in test [1] is above 5450 nM; in test [2], 306 nM.

For the compound `Cc1ccc2on(C[C@@H]3C[C@H]4c5ccccc5Oc5ccc(Br)cc5[C@H]4O3)c2c1`, the ED50 with Rattus norvegicus [3] amounted to 0.5 mg/kg; in the test on Rattus norvegicus [4], 0.5 mg/kg; in the test with Mus musculus it was 1.99 mg/kg; in the test with Rattus norvegicus [5], 0.8 mg/kg. Moreover, the Ki in test [1] is 58 nM; in test [2], 36 nM.

Take `Brc1ccc2c(c1)[C@H]1O[C@H](Cn3oc4ccc(CN5CCOCC5)cc43)C[C@H]1c1ccccc1O2`: the Ki turned out to be 4100 nM in test [1] and 189 nM in test [2].

In the case of `COc1ccc2c(c1)[C@H]1O[C@H](CN(C)C)C[C@H]1c1ccccc1O2`, the ED50 was 1.26 mg/kg with Rattus norvegicus [3], 0.32 mg/kg with Rattus norvegicus [4], 0.79 mg/kg in the test with Mus musculus and above 2.5 mg/kg in the test with Rattus norvegicus [5]. In test [2], this compound had an inhibitory constant (Ki) of 22 nM.

In the case of `CN(C)c1ccc2on(C[C@@H]3C[C@H]4c5ccccc5Oc5ccc(Br)cc5[C@H]4O3)c2c1`, the Ki in test [1] was 157 nM; in test [2], 95 nM.

By Ki is commonly meant a measure of affinity in units of concentration, obtained from inhibition or displacement. Low readings indicate a stronger hold on the target, high ones a looser hold on the target. In general, ED50 refers to the dose at which the effect has come halfway, by size or by number of responders.
